Where “and” joins values, the source holds several entries; their conditions need not be identical. Identical values can stand only once. Inconclusive results and toxic doses are left out.

This assay has as its system L1210 leukemia ip in BDF1 mice, survival T/C. As to the kind of experiment: NCI In Vivo Anticancer Drug Screen. Data for tumor model L1210 Leukemia (intraperitoneal) in B6D2F1 (BDF1) mice. The note with it: endpoint: mean survival time, higher = longer survival. Put shortly:
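Transplantable tumor model; survival measured in treated vs vehicle control mice. Value = treated/control.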

[1] abbreviates: dose: 100.0 mg/kg/injection, schedule: Q01DX009 (ip), vehicle: saline with Tween-80.
[2] abbreviates: dose: 100.0 mg/kg/injection, schedule: Q04DX003 (ip), vehicle: saline with Tween-80.
[3] abbreviates: dose: 200.0 mg/kg/injection, schedule: Q04DX003 (ip), vehicle: saline with Tween-80.
Setting [4] is: dose: 400.0 mg/kg/injection, schedule: Q04DX003 (ip), vehicle: saline with Tween-80.
Where [5] appears, read: dose: 100.0 mg/kg/injection, schedule: Q01DX001 (ip), vehicle: carboxymethylcellulose (CMC).
Setting [6] is: dose: 200.0 mg/kg/injection, schedule: Q01DX001 (ip), vehicle: carboxymethylcellulose (CMC).
[7] abbreviates: dose: 400.0 mg/kg/injection, schedule: Q01DX001 (ip), vehicle: carboxymethylcellulose (CMC).
[8] abbreviates: dose: 100.0 mg/kg/injection, schedule: Q01DX009 (ip), vehicle: Klucel (hydroxypropylcellulose) (HPC).
Where [9] appears, read: dose: 100.0 mg/kg/injection, schedule: Q04DX003 (ip), vehicle: Klucel (hydroxypropylcellulose) (HPC).
The mark [10] stands for this setting: dose: 200.0 mg/kg/injection, schedule: Q01DX009 (ip), vehicle: Klucel (hydroxypropylcellulose) (HPC).
Where [11] appears, read: dose: 200.0 mg/kg/injection, schedule: Q04DX003 (ip), vehicle: Klucel (hydroxypropylcellulose) (HPC).
The mark [12] stands for this setting: dose: 400.0 mg/kg/injection, schedule: Q01DX009 (ip), vehicle: Klucel (hydroxypropylcellulose) (HPC).
[13] abbreviates: dose: 100.0 mg/kg/injection, schedule: Q01DX001 (ip), vehicle: saline.
The mark [14] stands for this setting: dose: 200.0 mg/kg/injection, schedule: Q01DX001 (ip), vehicle: saline.
Setting [15] is: dose: 400.0 mg/kg/injection, schedule: Q01DX001 (ip), vehicle: saline.
Setting [16] is: dose: 100.0 mg/kg/injection, schedule: Q04DX003 (ip), vehicle: saline.
The mark [17] stands for this setting: dose: 200.0 mg/kg/injection, schedule: Q04DX003 (ip), vehicle: saline.

Regarding `O=c1[nH]c2ccc(I)cc2c(=O)o1`, the T/C is, setting by setting: under setting [1], 100 % of control; (dose: 200.0 mg/kg/injection, schedule: Q01DX009 (ip), vehicle: saline with Tween-80) 100 % of control; (dose: 400.0 mg/kg/injection, schedule: Q01DX009 (ip), vehicle: saline with Tween-80) 101 % of control.

For the molecule `C[n+]1c(-c2cc(Cl)cc(Cl)c2)c2cc([N+](=O)[O-])ccc2c2ccccc21`, the T/C was 109 % of control (dose: 50.0 mg/kg/injection, schedule: Q01DX009 (ip), vehicle: water); 96 % of control (dose: 100.0 mg/kg/injection, schedule: Q01DX009 (ip), vehicle: water); 92 % of control (dose: 100.0 mg/kg/injection, schedule: Q04DX003 (ip), vehicle: water); 98 % of control (dose: 200.0 mg/kg/injection, schedule: Q01DX009 (ip), vehicle: water); 96 % of control (dose: 200.0 mg/kg/injection, schedule: Q04DX003 (ip), vehicle: water); 93 % of control (dose: 400.0 mg/kg/injection, schedule: Q04DX003 (ip), vehicle: water).

For `Clc1ccccc1Br`, the T/C runs as follows: (dose: 100.0 mg/kg/injection, schedule: Q01DX007 (ip), vehicle: saline with Tween-80) 104 % of control; under setting [2], 95 % of control; (dose: 200.0 mg/kg/injection, schedule: Q01DX007 (ip), vehicle: saline with Tween-80) 98 % of control; under setting [3], 96 % of control; (dose: 400.0 mg/kg/injection, schedule: Q01DX007 (ip), vehicle: saline with Tween-80) 96 % of control; under setting [4], 98 % of control.

As to `O=C(CCc1ccncc1)c1ccccc1`, the T/C (dose: 50.0 mg/kg/injection, schedule: Q01DX001 (ip), vehicle: carboxymethylcellulose (CMC)) is 114 % of control; the T/C under setting [5] was 102 % of control; the T/C under setting [6] was 102 % of control; the T/C under setting [7] was 102 % of control.

For the molecule `O=C(c1ccccc1)C(CBr)C(Br)c1ccccc1` (stereo unspecified), the T/C was 90 % of control under setting [8]; 98 % of control under setting [9]; 101 % of control under setting [10]; 95 % of control under setting [11]; 93 % of control under setting [12]; 88 % of control (dose: 400.0 mg/kg/injection, schedule: Q04DX003 (ip), vehicle: Klucel (hydroxypropylcellulose) (HPC)).

Regarding `CC(=O)C(C)C(=O)c1cc(C)c(Br)s1` (stereo unspecified), the T/C is, setting by setting: under setting [5], 94 % of control; under setting [6], 97 % of control; under setting [7], 94 % of control.

For `CC(=O)Oc1ccc(CCN=C(c2ccccc2)c2ccccc2)cc1OC(C)=O`, the T/C reads like this: under setting [13], 107 % of control; under setting [14], 104 % of control; under setting [15], 100 % of control.

For `Cc1cnc(Br)c(Br)c1`, the T/C was 102 % of control under setting [2], 100 % of control under setting [3] and 102 % of control under setting [4].

`Cc1cc(Cl)nc(Cl)c1C#N`: the T/C under setting [8] is 101 % of control, the T/C under setting [9] was 100 % of control, the T/C under setting [10] is 97 % of control and the T/C under setting [11] was 89 % of control.

On to `Nc1nc2ccccc2c(=O)[nH]1`, for which the T/C was 110 % of control (dose: 25.0 mg/kg/injection, schedule: Q04DX003 (ip), vehicle: saline with Tween-80); 96 % of control (dose: 50.0 mg/kg/injection, schedule: Q04DX003 (ip), vehicle: saline with Tween-80); 102 % of control and 106 % of control under setting [2].

Take `O=P(O)(O)Cc1cccc2ccccc12`: the T/C under setting [9] was 92 % of control; the T/C under setting [2] is 96 % of control; the T/C under setting [11] was 89 % of control; the T/C under setting [3] was 96 % of control; the T/C under setting [4] is 96 % of control.

For the molecule `CCCCC(=O)N/N=C\c1ccc2c(c1)OCO2`, the T/C was 94 % of control under setting [13], 105 % of control under setting [14] and 91 % of control under setting [15].

Turning to `CCCC1CCCC(=O)N1` (stereo unspecified), the T/C reads like this: (dose: 75.0 mg/kg/injection, schedule: Q01DX001 (ip), vehicle: saline) 98 % of control; (dose: 150.0 mg/kg/injection, schedule: Q01DX001 (ip), vehicle: saline) 98 % of control.

Regarding `CCOC(=O)NOP(=O)(N1CC1(C)C)N1CC1(C)C` (stereo unspecified), the T/C is 207 % of control (dose: 100.0 mg/kg/injection, schedule: Q04DX002 (ip), vehicle: saline) and 86 % of control (dose: 200.0 mg/kg/injection, schedule: Q04DX002 (ip), vehicle: saline).

In the case of `CCCCCCCC(=O)/C=C/c1ccc(C)cc1`, the T/C was 105 % of control under setting [16]; 103 % of control under setting [17]; 92 % of control (dose: 400.0 mg/kg/injection, schedule: Q04DX003 (ip), vehicle: saline).

Take `CCCCCCCCC(=O)N1CC(C)OC(C)C1` (stereo unspecified): the T/C under setting [8] was 120 % of control; the T/C (dose: 100.0 mg/kg/injection, schedule: Q04DX003 (ip), vehicle: other) was 118 % of control; the T/C under setting [10] was 87 % of control; the T/C (dose: 200.0 mg/kg/injection, schedule: Q04DX003 (ip), vehicle: other) is 109 % of control; the T/C under setting [12] is 94 % of control; the T/C (dose: 400.0 mg/kg/injection, schedule: Q04DX003 (ip), vehicle: other) was 104 % of control.

As for `COc1ccccc1C1CCCC1OS(C)(=O)=O` (stereo unspecified), the T/C runs as follows: (dose: 75.0 mg/kg/injection, schedule: Q04DX003 (ip), vehicle: saline) 103 % of control; under setting [13], 98 % of control; (dose: 150.0 mg/kg/injection, schedule: Q04DX003 (ip), vehicle: saline) 100 % of control; under setting [14], 107 % of control; (dose: 300.0 mg/kg/injection, schedule: Q04DX003 (ip), vehicle: saline) 108 % of control; under setting [15], 96 % of control.

In the case of `Nc1ncnc2c1c(C1=NCCCN1)cn2C1OC(CO)C(O)C1O` (stereo unspecified), the T/C runs as follows: (dose: 12.5 mg/kg/injection, schedule: Q01DX005 (ip), vehicle: saline) 117 % of control; (dose: 50.0 mg/kg/injection, schedule: Q01DX005 (ip), vehicle: saline) 151 % of control.

With `CC(C)(C)NC1=NCCO1`, the T/C is, setting by setting: (dose: 25.0 mg/kg/injection, schedule: Q01DX009 (ip), vehicle: saline with Tween-80) 100 % of control; (dose: 50.0 mg/kg/injection, schedule: Q01DX009 (ip), vehicle: saline with Tween-80) 102 % of control; under setting [1], 96 % of control; under setting [2], 100 % of control.

Regarding `CCCCN(C)c1ncnc2[nH]ncc12`, the T/C (dose: 50.0 mg/kg/injection, schedule: Q01DX001 (ip), vehicle: saline) is 104 % of control; the T/C (dose: 50.0 mg/kg/injection, schedule: Q01DX009 (ip), vehicle: saline) is 116 % of control; the T/C (dose: 50.0 mg/kg/injection, schedule: Q04DX003 (ip), vehicle: saline) was 106 % of control; the T/C under setting [13] is 106 % of control; the T/C under setting [16] was 110 % of control; the T/C under setting [14] was 104 % of control. Besides, the T/C under setting [17] was 100 % of control.
